According to patent US8653276B2 (SANOFI, priority 2008, dated 2014):
Where a name gives a salt, the structure may show the parent alone.

Tests used:
human GPR14 receptor = target: T1, human GPR14 receptor (Homo sapiens, UniProt Q9UKP6); test: cell-based
T1 sequence (Q9UKP6 1-389): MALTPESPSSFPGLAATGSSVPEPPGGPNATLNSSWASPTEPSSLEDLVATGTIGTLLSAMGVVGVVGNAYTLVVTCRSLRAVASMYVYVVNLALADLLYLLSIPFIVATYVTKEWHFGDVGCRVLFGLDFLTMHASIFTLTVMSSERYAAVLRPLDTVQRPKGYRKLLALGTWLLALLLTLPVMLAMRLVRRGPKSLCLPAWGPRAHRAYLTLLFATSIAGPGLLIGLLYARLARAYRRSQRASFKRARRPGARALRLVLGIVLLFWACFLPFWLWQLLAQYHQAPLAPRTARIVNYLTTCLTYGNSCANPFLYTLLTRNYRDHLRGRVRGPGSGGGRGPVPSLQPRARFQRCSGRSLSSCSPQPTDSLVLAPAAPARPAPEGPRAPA
Description: GPR14 is a 7-domain transmembrane receptor coupled to Gq. Its activation with a specific ligand causes an increase in Ca^2+ in the cell via the PLC (phospholipase C), IP3 (inositol-1,4,5-triphosphate) DAG (diacylglycerol) route.
The increase in Ca^2+ in the cell is measured using a Fluo4AM permeating probe (monoexcitation, monoemission probe) which binds to the free Ca^2+ and emits at 520 nm. The free probe is nonfluorescent in the absence of Ca^2+.
Experiment Plan • 1) Seeding of the cells on D-1 (day-1) or D-2 • 2) Incorporation/charge (D0) of the probe (1 h) • 3) Addition of the products to the FlipR and measurement • 4) Addition of the ligand to the FlipR and measurement in the presence of the products • 5) Processing and exportation of the data
The cells are cultured in whole medium in a T225 flask. For the experiments, the cells are subcultured in 200 μl of culture medium in transparent-bottomed black 96-well plates at a rate of 60 000 cells/well for a use on D+1 or 40 000 cells/well for a use on D+2.
Fluo-4AM is prepared at 20 mM and then divided into aliquots (50 μl) and stored at −20° C. sheltered from light. A solution of pluronic acid at 200 mg/ml in DMSO is also prepared (it keeps for one week at room temperature sheltered from light).
The cells are charged with the mixture of Fluo-4AM+pluronic acid (aliquots of 50 μl+50 μl of pluronic acid) diluted to 1/100 in the measuring buffer.
After washing the wells with 150 μl of measuring buffer (cf. appendix), the cells are then charged in the following manner: • distribution of 100 μl of measuring buffer into each well • addition of 10 μl of the Fluo-4AM+pluronic acid mixture diluted to 1/100.
The cells are incubated for 1 hour at 37° C. sheltered from light, in an incubator in the presence of 5% CO2.
The cells are then washed 3 times with 150 μl of measuring buffer to remove the excess probe. A volume of 150 μl of buffer is added to each well at the end of washing.
After incubating the plates for 20 minutes at room temperature sheltered from light, they are placed in the FlipR for the fluorescence measurement.
The basic level of incorporation of the Fluo-4 is checked for each plate (sd<10%) before the first injection.
After stabilizing the base signal, the GPR14 inhibitor compounds are injected via the FlipR in a volume of 50 μl using a dilution plate prepared with Biomek 2000 as measuring buffer.
The data are recorded continuously throughout the experiment.
For each plate, the base fluorescence before injection of the compounds is normalized via the “spatial uniformity correction” function of the FlipR. […] In each plate, a series of wells is treated with urotensin alone in the absence of inhibitor compound.
The percentage of inhibition for each concentration of product is calculated as described below: Inhibition(%)=100×(delta Uro II−delta product)/delta Uro II

Cc1ccccc1-c1ccc(C(=O)N[C@@H](CCO)C(C)(C)C)nc1-c1ccc(Cl)c(OCCCN(C)C)c1 (as salt: hydrochloride)
melting point: 93 °C

COC(=O)C1(NC(=O)c2ccc(-c3ncc(Cl)cc3Cl)c(-c3ccc(Cl)c(OCCCN(C)C)c3)n2)CCCCC1 (as salt: hydrochloride) [Compound 1, methyl 1-{[(3,5-dichloro-2′-{4-chloro-3-[3-(dimethylamino)propoxy]phenyl}-2,3′-bipyridin-6′-yl)carbonyl]amino}cyclohexanecarboxylate]
melting point: 168 °C

COC(=O)C1(NC(=O)c2ccc(-c3ccc(O)cc3C)c(-c3ccc(Cl)c(OCCCN(C)C)c3)n2)CCCCC1 (as salt: hydrochloride) [Compound 2, methyl 1-({[6-{4-chloro-3-[3-(dimethylamino)propoxy]phenyl}-5-(4-hydroxy-2-methylphenyl)pyridin-2-yl]carbonyl}amino)cyclohexanecarboxylate]
melting point: 270 °C

COC(=O)C1(NC(=O)c2ccc(-c3ccccc3C)c(-c3ccc(Cl)c(OCCCN(C)C)c3)n2)CCCCC1 (as salt: hydrochloride) [Compound 4, methyl 1-({[6-{4-chloro-3-[3-(dimethylamino)propoxy]phenyl}-5-(2-methylphenyl)pyridin-2-yl]carbonyl}amino)cyclohexanecarboxylate]
melting point: 115 °C

COC(=O)C1(NC(=O)c2ccc(-c3ncc(C)cc3Cl)c(-c3ccc(Cl)c(OCCCN(C)C)c3)n2)CCCCC1 (as salt: hydrochloride) [Compound 5, methyl 1-{[(3-chloro-2′-{4-chloro-3-[3-(dimethylamino)propoxy]phenyl}-5-methyl-2,3′-bipyridin-6′-yl)carbonyl]amino}cyclohexanecarboxylate]
melting point: 152 °C

COC(=O)C1(NC(=O)c2ccc(-c3cc(C4CC4)ccc3C)c(-c3ccc(Cl)c(OCCCN(C)C)c3)n2)CCCCC1 (as salt: hydrochloride) [Compound 7, methyl 1-({[6-{4-chloro-3-[3-(dimethylamino)propoxy]phenyl}-5-(5-cyclopropyl-2-methylphenyl)pyridin-2-yl]carbonyl}amino)cyclohexanecarboxylate]
melting point: 114 °C

CCCOc1ccc(Cl)c(-c2ccc(C(=O)NC3(C(=O)OC)CCCCC3)nc2-c2ccc(Cl)c(OCCCN(C)C)c2)c1 (as salt: hydrochloride) [Compound 9, methyl 1-({[6-{4-chloro-3-[3-(dimethylamino)propoxy]phenyl}-5-(2-chloro-5-propoxyphenyl)pyridin-2-yl]carbonyl}amino)cyclohexanecarboxylate]
melting point: 117 °C

COC(=O)C1(NC(=O)c2ccc(-c3cc4c(cc3C)OCO4)c(-c3ccc(Cl)c(OCCCN(C)C)c3)n2)CCCCC1 (as salt: hydrochloride) [Compound 11, methyl 1-({[6-{4-chloro-3-[3-(dimethylamino)propoxy]phenyl}-5-(6-methyl-1,3-benzodioxol-5-yl)pyridin-2-yl]carbonyl}amino)cyclohexanecarboxylate]
melting point: 138 °C

COC(=O)C1(NC(=O)c2ccc(-c3ncc(C)cc3C)c(-c3ccc(Cl)c(OCCCN(C)C)c3)n2)CCCCC1 (as salt: hydrochloride) [Compound 13, methyl 1-{[(2′-{4-chloro-3-[3-(dimethylamino)propoxy]phenyl}-3,5-dimethyl-2,3′-bipyridin-6′-yl)carbonyl]amino}cyclohexanecarboxylate]
melting point: 176 °C

COC(=O)C1(NC(=O)c2ccc(-c3ncc(Cl)cc3Cl)c(-c3ccc(Cl)c(OCCCN(C)C)c3)n2)CCCCC1 [Compound 1, methyl 1-{[(3,5-dichloro-2′-{4-chloro-3-[3-(dimethylamino)propoxy]phenyl}-2,3′-bipyridin-6′-yl)carbonyl]amino}cyclohexanecarboxylate]
IC50 (human GPR14 receptor): 1.6 µM

COC(=O)C1(NC(=O)c2ccc(-c3ccc(O)cc3C)c(-c3ccc(Cl)c(OCCCN(C)C)c3)n2)CCCCC1 [Compound 2, methyl 1-({[6-{4-chloro-3-[3-(dimethylamino)propoxy]phenyl}-5-(4-hydroxy-2-methylphenyl)pyridin-2-yl]carbonyl}amino)cyclohexanecarboxylate]
IC50 (human GPR14 receptor): 1.7 µM

COC(=O)C1(NC(=O)c2ccc(-c3ccccc3C)c(-c3ccc(Cl)c(OCCCN(C)C)c3)n2)CCCCC1 [Compound 4, methyl 1-({[6-{4-chloro-3-[3-(dimethylamino)propoxy]phenyl}-5-(2-methylphenyl)pyridin-2-yl]carbonyl}amino)cyclohexanecarboxylate]
IC50 (human GPR14 receptor): 0.63 µM

COC(=O)C1(NC(=O)c2ccc(-c3ncc(C)cc3Cl)c(-c3ccc(Cl)c(OCCCN(C)C)c3)n2)CCCCC1 [Compound 5, methyl 1-{[(3-chloro-2′-{4-chloro-3-[3-(dimethylamino)propoxy]phenyl}-5-methyl-2,3′-bipyridin-6′-yl)carbonyl]amino}cyclohexanecarboxylate]
IC50 (human GPR14 receptor): 0.54 µM

COC(=O)C1(NC(=O)c2ccc(-c3cc(C4CC4)ccc3C)c(-c3ccc(Cl)c(OCCCN(C)C)c3)n2)CCCCC1 [Compound 7, methyl 1-({[6-{4-chloro-3-[3-(dimethylamino)propoxy]phenyl}-5-(5-cyclopropyl-2-methylphenyl)pyridin-2-yl]carbonyl}amino)cyclohexanecarboxylate]
IC50 (human GPR14 receptor): 0.33 µM

CCCOc1ccc(Cl)c(-c2ccc(C(=O)NC3(C(=O)OC)CCCCC3)nc2-c2ccc(Cl)c(OCCCN(C)C)c2)c1 [Compound 9, methyl 1-({[6-{4-chloro-3-[3-(dimethylamino)propoxy]phenyl}-5-(2-chloro-5-propoxyphenyl)pyridin-2-yl]carbonyl}amino)cyclohexanecarboxylate]
IC50 (human GPR14 receptor): 1.4 µM

COC(=O)C1(NC(=O)c2ccc(-c3cc4c(cc3C)OCO4)c(-c3ccc(Cl)c(OCCCN(C)C)c3)n2)CCCCC1 [Compound 11, methyl 1-({[6-{4-chloro-3-[3-(dimethylamino)propoxy]phenyl}-5-(6-methyl-1,3-benzodioxol-5-yl)pyridin-2-yl]carbonyl}amino)cyclohexanecarboxylate]
IC50 (human GPR14 receptor): 0.566 µM

COC(=O)C1(NC(=O)c2ccc(-c3ncc(C)cc3C)c(-c3ccc(Cl)c(OCCCN(C)C)c3)n2)CCCCC1 [Compound 13, methyl 1-{[(2′-{4-chloro-3-[3-(dimethylamino)propoxy]phenyl}-3,5-dimethyl-2,3′-bipyridin-6′-yl)carbonyl]amino}cyclohexanecarboxylate]
IC50 (human GPR14 receptor): 0.846 µM

COC(=O)C1(NC(=O)c2ccc(-n3nc(C)cc3C)c(-c3ccc(Cl)c(OCCCN(C)C)c3)n2)CCCCC1 [Compound 18, methyl 1-({[6-{4-chloro-3-[3-(dimethylamino)propoxy]phenyl}-5-(3,5-dimethyl-1H-pyrazol-1-yl)pyridin-2-yl]carbonyl}amino)cyclohexanecarboxylate]
IC50 (human GPR14 receptor): 1.08 µM

COC(=O)C1(NC(=O)c2cnc(-c3ccc(C)cc3C)c(-c3ccc(Cl)c(OCCCN(C)C)c3)n2)CCCCC1 [Compound 20, methyl 1-({[6-{4-chloro-3-[3-(dimethylamino)propoxy]phenyl}-5-(2,4-dimethylphenyl)pyrazin-2-yl]carbonyl}amino)cyclohexanecarboxylate]
IC50 (human GPR14 receptor): 0.116 µM

CCOc1ccc(Cl)c(-c2ncc(C(=O)N[C@@H](CC(=O)OC)C(C)(C)C)nc2-c2ccc(Cl)c(OCCCN(C)C)c2)c1 [Compound 24, methyl(3S)-3-({[6-{4-chloro-3-[3-(dimethylamino)propoxy]phenyl}-5-(2-chloro-5-ethoxyphenyl)pyrazin-2-yl]carbonyl}amino)-4,4-dimethylpentanoate]
IC50 (human GPR14 receptor): 0.102 µM

COC(=O)C1(NC(=O)c2ccc(-c3ccccc3Cl)c(-c3ccc(Cl)c(OCCCN(C)C)c3)n2)C2CC3CC(C2)CC1C3 (stereo not shown) [Compound 26, methyl 2-({[6-{4-chloro-3-[3-(dimethylamino)propoxy]phenyl}-5-(2-chlorophenyl)pyridin-2-yl]carbonyl}amino)adamantane-2-carboxylate]
IC50 (human GPR14 receptor): 0.17 µM

CCOC(=O)C[C@H](NC(=O)c1ccc(-c2ccccc2C)c(-c2ccc(Cl)c(OCCCN(C)C)c2)n1)C(C)(C)C [Compound 29, ethyl(3S)-3-({[6-{4-chloro-3-[3-(dimethylamino)propoxy]phenyl}-5-(2-methylphenyl)pyridin-2-yl]carbonyl}amino)-4,4-dimethylpentanoate]
IC50 (human GPR14 receptor): 0.253 µM

CNC(=O)C[C@H](NC(=O)c1ccc(-c2ccccc2C)c(-c2ccc(Cl)c(OCCCN(C)C)c2)n1)C(C)(C)C [Compound 33, 6-{4-chloro-3-[3-(dimethylamino)propoxy]phenyl}-N-{(1S)-2,2-dimethyl-1-[2-(methylamino)-2-oxoethyl]propyl}-5-(2-methylphenyl)pyridine-2-carboxamide]
IC50 (human GPR14 receptor): 0.45 µM

COC(=O)[C@]1(NC(=O)c2ccc(-c3ccccc3C)c(-c3ccc(Cl)c(OCCCN(C)C)c3)n2)CC[C@@H](O)CC1 [Compound 42, methyl cis-1-({[6-{4-chloro-3-[3-(dimethylamino)propoxy]phenyl}-5-(2-methylphenyl)pyridin-2-yl]carbonyl}amino)-4-hydroxycyclohexanecarboxylate]
IC50 (human GPR14 receptor): 0.095 µM

COC(=O)[C@]1(NC(=O)c2ccc(-c3ncc(C)cc3Cl)c(-c3ccc(Cl)c(OCCCN(C)C)c3)n2)CC[C@@H](O)CC1 [Compound 44, methyl cis-1-{[(3-chloro-2′-{4-chloro-3-[3-(dimethylamino)propoxy]phenyl}-5-methyl-2,3′-bipyridin-6′-yl)carbonyl]amino}-4-hydroxycyclohexanecarboxylate]
IC50 (human GPR14 receptor): 0.66 µM
